Literature values, collected in patent US20240366754A1, “PHARMACEUTICAL COMPOSITIONS FOR DELIVERY OF VIRAL ANTIGENS AND RELATED METHODS” (BioNTech SE, priority 2021, published 2024).
Entries after “also recorded” stand apart in the source; their conditions may differ. Read-outs that look alike come from different tables or passages of the source.

Key:
[1] = test system: norovirus; conditions: in vivo

Compound | Most common adverse effects (Intravenous formulations) | Most common adverse effects (Oral formulations) | effect on norovirus illness [1]
Nc1nc2c(ncn2COCCO)c(=O)[nH]1 [acyclovir] | phlebitis, acute renal; also recorded: failure, nausea,; also recorded: vomiting, rash | malaise, headache,; also recorded: nausea, vomiting | 
CC(=O)OCC(CCn1cnc2cnc(N)nc21)COC(C)=O [famciclovir] |  | headache, nausea,; also recorded: fatigue, diarrhea | 
O=C(O)P(=O)(O)O [foscarnet] | fever, headache,; also recorded: renal dysfunction,; also recorded: electrolyte; also recorded: abnormalities,; also recorded: nausea, vomiting; also recorded: diarrhea, anemia,; also recorded: granulocytopenia |  | 
CC(=O)Oc1ccccc1C(=O)Nc1ncc([N+](=O)[O-])s1 [nitazoxanide] |  |  | reduce the duration of illness
CC(C)[C@H](N)C(=O)OCCOCn1cnc2c(=O)[nH]c(N)nc21 [valacyclovir] |  | headache, nausea,; also recorded: abdominal pain | 
